Reference: patent publication US4221811A, “Antifungal and/or antibacterial organotin compounds, and use” (priority 1977, dated 1980)

Legend:
Format in all cases: cell-based
B. subtilis = B. subtilis (Gram-pos.); after three days; peptone-glucose agar; pH ~ 6.9-7.0
Excerpt: (§1) Antibacterial activity of organotin compounds. Minimal concentration
(§2) causing complete inhibition of visible growth (MIC; after three days).
(§3) Test medium: peptone-glucose agar; pH ~ 6.9-7.0.

P. fluorescens = P. fluorescens (Gram-neg.); after three days; peptone-glucose agar; pH ~ 6.9-7.0
Excerpt: as §1, §2, §3

E. coli = E. coli (Gram-neg.); after three days; peptone-glucose agar; pH ~ 6.9-7.0
Excerpt: as §1, §2, §3

S. lactis = S. lactis (Gram-pos.); after three days; peptone-glucose agar; pH ~ 6.9-7.0
Excerpt: as §1, §2, §3

Botrytis allii = details: after three days, glucose-agar, pH~6.9-7.0
Excerpt: (§4) Antifungal activity of organotin compounds. Minimal concentra-
(§5) tion (mg/l) causing complete inhibition of visible growth (MIC;
(§6) after three days). -Test medium: glucose-agar; pH~6.9-7.0.

Cladosporium cucumerinum = details: after three days, glucose-agar, pH~6.9-7.0
Excerpt: as §4, §5, §6

Penicillium italicum = details: after three days, glucose-agar, pH~6.9-7.0
Excerpt: as §4, §5, §6

Aspergillus niger = details: after three days, glucose-agar, pH~6.9-7.0
Excerpt: as §4, §5, §6

| Structure (SMILES) | Minimal concentration causing complete inhibition of visible growth (MIC) (B. subtilis) | Minimal concentration causing complete inhibition of visible growth (MIC) (P. fluorescens) | Minimal concentration causing complete inhibition of visible growth (MIC) (E. coli) | Minimal concentration causing complete inhibition of visible growth (MIC) (S. lactis) | Minimal concentration causing complete inhibition of visible growth (MIC) (Botrytis allii) | Minimal concentration causing complete inhibition of visible growth (MIC) (Cladosporium cucumerinum) | Minimal concentration causing complete inhibition of visible growth (MIC) (Penicillium italicum) | Minimal concentration causing complete inhibition of visible growth (MIC) (Aspergillus niger) |
| --- | --- | --- | --- | --- | --- | --- | --- | --- |
| CCC[CH2][Sn]([CH2]CCC)([CH2]CCN(C)C)[CH2]CCN(C)C [Bu2 Sn[(CH2)3 NMe2]2] | 100 µg/mL | 300 µg/mL | 100 µg/mL | 100 µg/mL | 50 µg/mL | 500 µg/mL | 100 µg/mL | > 500 µg/mL |
| CCC[CH2][Sn]([CH2]CCC)([CH2]CC[N+](C)(C)C)[CH2]CC[N+](C)(C)C.[I-].[I-] [Bu2 Sn[(CH2)3 NMe3 I]2, Bis(trimethylammoniopropyl)dibutyltin diiodide] | 300 µg/mL | > 1000 µg/mL | > 1000 µg/mL | 300 µg/mL | 200 µg/mL | > 500 µg/mL | 200 µg/mL | > 500 µg/mL |
| CCC[CH2][Sn]([CH2]CCC)([CH2]CCC)[CH2]CC(N)=O [Bu3 Sn(CH2)2 CONH2] | 3 µg/mL | 300 µg/mL | > 1000 µg/mL | 10 µg/mL | ≤ 10 µg/mL | ≤ 10 µg/mL | ≤ 10 µg/mL | ≤ 20 µg/mL |
| CCC[CH2][Sn]([CH2]CCC)([CH2]CCC)[CH2]CCN [Bu3 Sn(CH2)3 NH2] | – | – | – | – | – | 5 µg/mL | 2 µg/mL | 20 µg/mL |
| CCC[CH2][Sn]([CH2]CCC)([CH2]CCC)[CH2]CCN(C)C.Cl [Bu3 Sn(CH2)3 NMe2 . HCl] | 10 µg/mL | 300 µg/mL | 300 µg/mL | 10 µg/mL | 5 µg/mL | 5 µg/mL | 5 µg/mL | 5 µg/mL |
| CCC[CH2][Sn]([CH2]CCC)([CH2]CCC)[CH2]CC[N+](C)(C)C.[I-] [Bu3 Sn(CH2)3 NMe3 I] | ≤ 1 µg/mL | 300 µg/mL | 30 µg/mL | ≤ 1 µg/mL | ≤ 10 µg/mL | 20 µg/mL | 50 µg/mL | 50 µg/mL |
| CCC[CH2][Sn]([CH2]CCC)([CH2]CCC)[CH2]CCOC(C)=O [Bu3 Sn(CH2)3 OCOCH3] | 100 µg/mL | 300 µg/mL | > 1000 µg/mL | 100 µg/mL | 50 µg/mL | 20 µg/mL | 20 µg/mL | 50 µg/mL |
| CCC[CH2][Sn]([CH2]CCC)([CH2]CCC)[CH2]CCO [Bu3 Sn(CH2)3 OH] | 1000 µg/mL | > 1000 µg/mL | > 1000 µg/mL | 300 µg/mL | 50 µg/mL | 100 µg/mL | 100 µg/mL | 100 µg/mL |
| CCC[CH2][Sn]([CH2]CCC)([CH2]CCC)[CH2]CCCN [Bu3 Sn(CH2)4 NH2] | 3 µg/mL | 300 µg/mL | 300 µg/mL | 3 µg/mL | – | – | – | – |
| CCC[CH2][Sn]([CH2]C#N)([CH2]CCC)[CH2]CCC [Bu3 SnCH2 CN] | – | – | – | – | 20 µg/mL | – | 5 µg/mL | 1 µg/mL |
| CCC[CH2][Sn]([CH2]CCC)([CH2]CCC)[O]C(C)=O [Bu3 SnOAc, reference compound] | 2 µg/mL | 100 µg/mL | > 500 µg/mL | 5 µg/mL | 0.5 µg/mL | 1 µg/mL | 0.5 µg/mL | 1 µg/mL |
| CCC[CH2][Sn]([CH2]CCC)([CH2]CCC)[CH2]CCC [Bu4 Sn, reference compound] | > 500 µg/mL | > 500 µg/mL | > 500 µg/mL | > 500 µg/mL | > 500 µg/mL | > 500 µg/mL | > 500 µg/mL | > 500 µg/mL |
| CCC[CH2][Sn]([CH3])([CH2]CCC)[CH2]CCNCCCN(C)C [MeBu2 Sn(CH2)3 NH(CH2)3 NMe2, N-[3-(methyldibutylstannyl)propyl-N', N'-dimethyltrimethylene]diamine] | 10 µg/mL | 10 µg/mL | 10 µg/mL | 10 µg/mL | ≤ 10 µg/mL | 50 µg/mL | ≤ 10 µg/mL | 50 µg/mL |
| CCCC[CH2][Sn]([CH2]CCCC)([CH2]CCCC)[CH2]CC[N+](C)(C)C.[I-] [Pent3 Sn(CH2)3 NMe3 I] | – | – | – | – | ≤ 10 µg/mL | 20 µg/mL | 20 µg/mL | 20 µg/mL |
| CC[N+](C)(CC)CC[CH2][Sn]([c]1ccccc1)([c]1ccccc1)[c]1ccccc1.[I-] [Ph3 Sn(CH2)3 NEt2 MeI] | – | – | – | – | 50 µg/mL | – | 500 µg/mL | > 1000 µg/mL |
| C[N+](C)(C)CC[CH2][Sn]([c]1ccccc1)([c]1ccccc1)[c]1ccccc1.[I-] [Ph3 Sn(CH2)3 NMe3 I] | 10 µg/mL | 1000 µg/mL | 1000 µg/mL | 10 µg/mL | 20 µg/mL | 500 µg/mL | 200 µg/mL | > 500 µg/mL |
| O=C([CH2][Sn]([c]1ccccc1)([c]1ccccc1)[c]1ccccc1)[O][Sn]([c]1ccccc1)([c]1ccccc1)[c]1ccccc1 [Ph3 SnCH2 COOSnPh3] | – | – | – | – | ≤ 10 µg/mL | – | ≤ 10 µg/mL | ≤ 10 µg/mL |
| CC[CH2][Sn]([CH2]CC)([CH2]CC)[CH2]CCNCCCN(C)C [Pr3 Sn(CH2)3 NH(CH2)3 NMe2, N-[3-(tripropylstannyl)propyl-N', N'-dimethyltrimethylene]diamine] | 10 µg/mL | 10 µg/mL | 10 µg/mL | 10 µg/mL | ≤ 10 µg/mL | ≤ 10 µg/mL | ≤ 10 µg/mL | 10 µg/mL |
